Source: patent publication US10844077B2, “Thiazolyl-containing compounds for treating proliferative diseases” (Dana-Farber Cancer Institute, Inc., priority 2014, dated 2020)
Several values for one entry are separate records, joined by “and”; a condition that tells them apart may be missing. Equal values may be shown once.

Columns and labels:
Experiment in all cases: KINATIV assay
Assay type in all cases: cell-based
Settings in all cases: 1 μM, 90 minutes, BCWM.1 cells
ATR = ATR (Homo sapiens (Human), UniProt Q13535)
How it was run: (§1)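 Harvested cells were lysed and the lysates labeled directly with an ATP-biotin probe. Probe-bound kinases were then identified and quantitated by ACTIVX chemoproteomics. Compounds ran in duplicate against duplicate or quadruplicate controls.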

PIK3CG = PIK3CG (Homo sapiens (Human), UniProt P48736)
How it was run: as §1

BARK1 = BARK1 (Homo sapiens (Human), UniProt P25098)
Sequence of BARK1 (P25098 whole entry): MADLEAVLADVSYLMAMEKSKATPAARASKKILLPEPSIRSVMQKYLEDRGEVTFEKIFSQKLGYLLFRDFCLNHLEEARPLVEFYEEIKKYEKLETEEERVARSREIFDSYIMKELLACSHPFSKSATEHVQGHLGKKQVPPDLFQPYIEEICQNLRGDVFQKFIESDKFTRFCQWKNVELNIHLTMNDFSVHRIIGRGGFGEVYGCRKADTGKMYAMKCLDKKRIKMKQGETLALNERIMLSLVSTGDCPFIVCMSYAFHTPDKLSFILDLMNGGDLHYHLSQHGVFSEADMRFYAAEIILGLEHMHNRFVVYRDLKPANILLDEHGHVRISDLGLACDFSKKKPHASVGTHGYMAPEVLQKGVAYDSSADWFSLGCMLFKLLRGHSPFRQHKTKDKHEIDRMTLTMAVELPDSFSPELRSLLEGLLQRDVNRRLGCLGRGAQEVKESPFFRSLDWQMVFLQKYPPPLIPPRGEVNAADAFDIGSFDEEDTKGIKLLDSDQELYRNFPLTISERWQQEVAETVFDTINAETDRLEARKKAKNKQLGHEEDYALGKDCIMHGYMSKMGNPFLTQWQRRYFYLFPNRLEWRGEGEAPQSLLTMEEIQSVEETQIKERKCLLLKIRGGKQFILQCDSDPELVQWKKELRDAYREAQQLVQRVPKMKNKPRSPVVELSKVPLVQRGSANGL
How it was run: as §1

ILK = ILK (Homo sapiens (Human), UniProt Q13418)
How it was run: as §1

MARK1, MARK2 = test system: MARK1, MARK2
How it was run: as §1

MAP3K5 = MAP3K5 (Homo sapiens (Human), UniProt Q99683)
How it was run: as §1

FRK = FRK (Homo sapiens (Human), UniProt P42685)
How it was run: as §1

[1] = test system: CaMK2a, CaMK2b, CaMK2d, CaMK2g
How it was run: as §1

VRK2 = VRK2 (Homo sapiens (Human), UniProt Q86Y07)
Sequence of VRK2 (Q86Y07 whole entry): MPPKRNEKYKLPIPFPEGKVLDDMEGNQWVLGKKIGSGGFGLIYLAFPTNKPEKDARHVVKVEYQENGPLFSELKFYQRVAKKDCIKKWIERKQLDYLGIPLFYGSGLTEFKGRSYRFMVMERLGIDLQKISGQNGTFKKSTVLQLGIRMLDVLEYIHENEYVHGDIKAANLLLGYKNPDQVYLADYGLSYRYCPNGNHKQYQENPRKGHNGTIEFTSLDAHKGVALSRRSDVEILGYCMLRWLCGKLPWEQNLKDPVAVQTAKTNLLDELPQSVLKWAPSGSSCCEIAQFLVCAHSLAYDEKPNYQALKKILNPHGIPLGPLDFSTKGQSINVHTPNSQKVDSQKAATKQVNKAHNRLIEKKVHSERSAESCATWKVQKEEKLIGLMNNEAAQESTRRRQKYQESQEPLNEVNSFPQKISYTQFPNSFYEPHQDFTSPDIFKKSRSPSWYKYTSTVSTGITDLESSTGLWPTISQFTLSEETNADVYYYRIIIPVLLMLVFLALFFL
How it was run: as §1

JNK1, JNK2, JNK3 = test system: JNK1, JNK2, JNK3
How it was run: as §1

RSK1 domain2 = RSK1 domain2 (Homo sapiens (Human), UniProt Q15418)
How it was run: as §1

FYN, SRC, YES = test system: FYN, SRC, YES
How it was run: as §1

NEK3 = NEK3 (Homo sapiens (Human), UniProt P51956)
Sequence of NEK3 (P51956 whole entry): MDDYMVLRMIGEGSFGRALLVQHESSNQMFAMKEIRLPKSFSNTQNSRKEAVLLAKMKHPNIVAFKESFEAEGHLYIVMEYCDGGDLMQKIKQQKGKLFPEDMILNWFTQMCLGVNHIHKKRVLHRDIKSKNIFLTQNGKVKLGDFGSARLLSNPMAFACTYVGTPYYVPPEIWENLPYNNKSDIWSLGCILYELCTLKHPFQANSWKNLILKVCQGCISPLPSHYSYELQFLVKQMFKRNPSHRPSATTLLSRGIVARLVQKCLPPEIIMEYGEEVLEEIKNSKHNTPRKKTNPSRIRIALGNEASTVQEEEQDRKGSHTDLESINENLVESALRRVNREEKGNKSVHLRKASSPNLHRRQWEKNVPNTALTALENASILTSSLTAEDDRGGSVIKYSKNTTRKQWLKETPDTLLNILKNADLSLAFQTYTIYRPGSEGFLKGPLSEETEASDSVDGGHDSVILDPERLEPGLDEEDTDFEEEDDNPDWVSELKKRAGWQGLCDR
How it was run: as §1

CDK6 = CDK6 (Homo sapiens (Human), UniProt Q00534)
How it was run: as §1

SRPK1, SRPK2 = test system: SRPK1, SRPK2
How it was run: as §1

PAN3 = PAN3 (Homo sapiens (Human), UniProt Q58A45)
How it was run: as §1

MAP3K3 = MAP3K3 (Homo sapiens (Human), UniProt Q99759)
How it was run: as §1

PYK2 = PYK2 (Homo sapiens (Human), UniProt Q14289)
How it was run: as §1

eEF2K = eEF2K (Homo sapiens (Human), UniProt O00418)
How it was run: as §1

MAP3K2, MAP3K3 = test system: MAP3K2, MAP3K3
How it was run: as §1

p38d, p38g = test system: p38d, p38g
How it was run: as §1

MYO3A, MYO3B = test system: MYO3A, MYO3B
How it was run: as §1

Erk5 = Erk5 (Homo sapiens (Human), UniProt Q13164)
How it was run: as §1

CaMK4 = CaMK4 (Homo sapiens (Human), UniProt Q16566)
Sequence of CaMK4 (Q16566 whole entry): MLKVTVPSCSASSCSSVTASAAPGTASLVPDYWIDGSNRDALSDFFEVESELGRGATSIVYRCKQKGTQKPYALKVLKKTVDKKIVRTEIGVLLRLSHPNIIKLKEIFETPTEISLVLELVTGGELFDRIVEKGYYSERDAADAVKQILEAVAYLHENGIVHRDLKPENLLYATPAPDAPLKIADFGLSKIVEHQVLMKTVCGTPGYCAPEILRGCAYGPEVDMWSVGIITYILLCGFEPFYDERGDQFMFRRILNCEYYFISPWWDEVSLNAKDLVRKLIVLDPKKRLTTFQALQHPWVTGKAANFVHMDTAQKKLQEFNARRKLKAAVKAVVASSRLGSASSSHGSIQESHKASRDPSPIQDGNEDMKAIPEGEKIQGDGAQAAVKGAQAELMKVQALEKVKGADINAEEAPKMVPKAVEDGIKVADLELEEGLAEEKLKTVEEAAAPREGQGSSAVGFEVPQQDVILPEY
How it was run: as §1

CDK9 = CDK9 (Homo sapiens (Human), UniProt P50750)
Sequence of CDK9 (P50750 whole entry): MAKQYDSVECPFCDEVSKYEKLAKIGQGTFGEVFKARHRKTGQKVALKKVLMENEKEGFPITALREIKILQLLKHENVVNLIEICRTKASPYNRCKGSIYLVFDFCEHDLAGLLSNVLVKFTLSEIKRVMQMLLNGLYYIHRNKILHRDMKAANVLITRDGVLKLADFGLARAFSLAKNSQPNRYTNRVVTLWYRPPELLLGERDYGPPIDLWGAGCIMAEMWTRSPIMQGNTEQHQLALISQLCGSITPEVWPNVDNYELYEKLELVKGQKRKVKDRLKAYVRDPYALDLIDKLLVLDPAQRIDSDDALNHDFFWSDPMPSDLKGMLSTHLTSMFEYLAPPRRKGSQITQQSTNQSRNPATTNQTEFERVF
Sequence of CDK9 (O60563 whole entry partner): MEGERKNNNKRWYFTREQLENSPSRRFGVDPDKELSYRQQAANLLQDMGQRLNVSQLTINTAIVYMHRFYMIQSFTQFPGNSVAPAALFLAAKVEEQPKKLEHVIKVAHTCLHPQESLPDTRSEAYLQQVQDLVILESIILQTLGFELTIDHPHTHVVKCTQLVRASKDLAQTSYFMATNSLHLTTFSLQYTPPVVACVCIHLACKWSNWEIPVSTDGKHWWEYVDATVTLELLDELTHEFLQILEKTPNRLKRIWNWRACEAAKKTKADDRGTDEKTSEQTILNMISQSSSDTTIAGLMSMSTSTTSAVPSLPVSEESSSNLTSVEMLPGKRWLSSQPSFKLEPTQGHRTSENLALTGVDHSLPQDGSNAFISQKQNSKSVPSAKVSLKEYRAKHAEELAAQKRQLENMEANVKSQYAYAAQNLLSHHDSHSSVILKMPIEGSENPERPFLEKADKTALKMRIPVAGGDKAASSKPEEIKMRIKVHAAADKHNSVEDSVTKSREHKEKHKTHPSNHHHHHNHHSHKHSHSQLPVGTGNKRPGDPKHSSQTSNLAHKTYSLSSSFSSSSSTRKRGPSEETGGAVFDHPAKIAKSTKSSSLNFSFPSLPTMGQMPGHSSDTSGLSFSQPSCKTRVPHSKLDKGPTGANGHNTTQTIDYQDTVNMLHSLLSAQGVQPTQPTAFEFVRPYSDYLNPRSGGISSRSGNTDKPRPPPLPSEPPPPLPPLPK
How it was run: as §1

NEK7 = NEK7 (Homo sapiens (Human), UniProt Q8TDX7)
How it was run: as §1

AMPKa1 = AMPKa1 (Homo sapiens (Human), UniProt Q13131)
How it was run: as §1

MAP2K7 = MAP2K7 (Homo sapiens (Human), UniProt O14733)
How it was run: as §1

RSK3 = RSK3 (Homo sapiens (Human), UniProt Q15349)
How it was run: as §1

NEK4 = NEK4 (Homo sapiens (Human), UniProt P51957)
Sequence of NEK4 (P51957 whole entry): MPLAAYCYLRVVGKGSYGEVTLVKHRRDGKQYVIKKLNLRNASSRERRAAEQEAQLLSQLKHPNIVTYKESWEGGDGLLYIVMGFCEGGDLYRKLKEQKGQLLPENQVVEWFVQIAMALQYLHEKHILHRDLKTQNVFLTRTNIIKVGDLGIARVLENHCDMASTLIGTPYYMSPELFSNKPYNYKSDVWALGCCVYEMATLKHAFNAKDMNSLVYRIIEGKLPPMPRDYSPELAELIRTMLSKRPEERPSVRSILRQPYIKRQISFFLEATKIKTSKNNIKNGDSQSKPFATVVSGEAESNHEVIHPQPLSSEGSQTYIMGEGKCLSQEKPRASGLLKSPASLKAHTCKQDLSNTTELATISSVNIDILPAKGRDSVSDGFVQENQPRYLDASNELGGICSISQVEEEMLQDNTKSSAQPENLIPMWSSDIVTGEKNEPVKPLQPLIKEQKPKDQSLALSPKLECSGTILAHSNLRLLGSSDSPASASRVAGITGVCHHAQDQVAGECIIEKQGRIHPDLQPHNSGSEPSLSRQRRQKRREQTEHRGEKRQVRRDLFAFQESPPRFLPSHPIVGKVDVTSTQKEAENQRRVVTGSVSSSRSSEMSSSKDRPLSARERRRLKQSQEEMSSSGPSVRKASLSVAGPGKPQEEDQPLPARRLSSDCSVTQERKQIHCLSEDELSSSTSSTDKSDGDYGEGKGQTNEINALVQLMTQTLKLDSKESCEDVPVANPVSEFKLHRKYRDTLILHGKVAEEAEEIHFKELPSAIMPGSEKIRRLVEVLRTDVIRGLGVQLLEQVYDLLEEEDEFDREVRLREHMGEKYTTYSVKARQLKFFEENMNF
How it was run: as §1

CaMK2d = CaMK2d (Homo sapiens (Human), UniProt Q13557)
How it was run: as §1

IRAK1 = IRAK1 (Homo sapiens (Human), UniProt P51617)
Sequence of IRAK1 (P51617 whole entry): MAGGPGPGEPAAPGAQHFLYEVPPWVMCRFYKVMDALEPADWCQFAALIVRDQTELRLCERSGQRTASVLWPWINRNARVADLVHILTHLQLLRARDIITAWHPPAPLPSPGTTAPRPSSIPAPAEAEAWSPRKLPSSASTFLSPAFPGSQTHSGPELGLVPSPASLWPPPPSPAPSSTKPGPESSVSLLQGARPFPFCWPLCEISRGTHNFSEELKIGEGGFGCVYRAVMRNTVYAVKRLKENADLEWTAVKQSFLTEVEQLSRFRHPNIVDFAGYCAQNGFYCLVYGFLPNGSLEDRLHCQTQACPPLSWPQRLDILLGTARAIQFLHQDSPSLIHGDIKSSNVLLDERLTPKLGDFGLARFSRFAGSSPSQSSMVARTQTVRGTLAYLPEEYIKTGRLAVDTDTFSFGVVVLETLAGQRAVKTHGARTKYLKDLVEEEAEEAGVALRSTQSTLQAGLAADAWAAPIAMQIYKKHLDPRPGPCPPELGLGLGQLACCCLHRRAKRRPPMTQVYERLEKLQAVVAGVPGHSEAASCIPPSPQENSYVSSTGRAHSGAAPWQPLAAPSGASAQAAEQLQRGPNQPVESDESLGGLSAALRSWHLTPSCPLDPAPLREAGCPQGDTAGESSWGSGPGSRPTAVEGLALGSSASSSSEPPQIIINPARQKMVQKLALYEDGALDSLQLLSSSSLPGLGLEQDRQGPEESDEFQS
How it was run: as §1

PI4KA, PI4KAP2 = test system: PI4KA, PI4KAP2
How it was run: as §1

FRAP = FRAP (Homo sapiens (Human), UniProt P42345)
How it was run: as §1

CDC2 = CDC2 (Homo sapiens (Human), UniProt P06493)
How it was run: as §1

MAP2K6 = MAP2K6 (Homo sapiens (Human), UniProt P52564)
How it was run: as §1

TLK1 = TLK1 (Homo sapiens (Human), UniProt Q9UKI8)
How it was run: as §1

Structure (SMILES): C=CC(=O)N1CCC(CNc2nccc(Nc3ncc(C(=O)Nc4c(C)cccc4C)s3)n2)C1 (racemic) [Example I-8]
- % change of MS signal compared to control sample (ATR): −24.9%
- % change of MS signal compared to control sample (PIK3CG): −55.4%
- % change of MS signal compared to control sample (BARK1): −19.6%
- % change of MS signal compared to control sample (ILK): 19.4% and 36.6%
- % change of MS signal compared to control sample (MARK1, MARK2): 14.6%
- % change of MS signal compared to control sample (MAP3K5): −0.7%
- % change of MS signal compared to control sample (FRK): 95.3%
- % change of MS signal compared to control sample [1]: 10.4%
- % change of MS signal compared to control sample (VRK2): 3.6%
- % change of MS signal compared to control sample (JNK1, JNK2, JNK3): −9.5%
- % change of MS signal compared to control sample (RSK1 domain2): 0.5%
- % change of MS signal compared to control sample (FYN, SRC, YES): 97.9%
- % change of MS signal compared to control sample (NEK3): 3.2%
- % change of MS signal compared to control sample (CDK6): 4.5%
- % change of MS signal compared to control sample (SRPK1, SRPK2): 33.2%
- % change of MS signal compared to control sample (PAN3): 18.3%
- % change of MS signal compared to control sample (MAP3K3): 7.9%
- % change of MS signal compared to control sample (PYK2): 20.3% and 25.5%
- % change of MS signal compared to control sample (eEF2K): −1.5%
- % change of MS signal compared to control sample (MAP3K2, MAP3K3): 19.4%
- % change of MS signal compared to control sample (p38d, p38g): 3.3%
- % change of MS signal compared to control sample (MYO3A, MYO3B): 23.1%
- % change of MS signal compared to control sample (Erk5): −11.4%
- % change of MS signal compared to control sample (CaMK4): −26.3%
- % change of MS signal compared to control sample (CDK9): −5.2%
- % change of MS signal compared to control sample (NEK7): −1.0%
- % change of MS signal compared to control sample (AMPKa1): −0.6%
- % change of MS signal compared to control sample (MAP2K7): −7.5%
- % change of MS signal compared to control sample (RSK3): 2.9%
- % change of MS signal compared to control sample (NEK4): 15.2%
- % change of MS signal compared to control sample (CaMK2d): −22.3%
- % change of MS signal compared to control sample (IRAK1): 13.6%
- % change of MS signal compared to control sample (PI4KA, PI4KAP2): −9.9%
- % change of MS signal compared to control sample (FRAP): −5.2%

Structure (SMILES): C=CC(=O)N1CC[C@@H](Nc2nccc(Nc3ncc(C(=O)Nc4c(C)cccc4C)s3)n2)C1 [Example I-4]
- % change of MS signal compared to control sample (CDC2): −24.9%
- % change of MS signal compared to control sample (ATR): −66.1%
- % change of MS signal compared to control sample (PIK3CG): −46.3%
- % change of MS signal compared to control sample (BARK1): −8.1%
- % change of MS signal compared to control sample (ILK): −19.1%
- % change of MS signal compared to control sample (MARK1, MARK2): 17.1%
- % change of MS signal compared to control sample (MAP3K5): −10.7%
- % change of MS signal compared to control sample (FRK): 87.5%
- % change of MS signal compared to control sample [1]: 10.0%
- % change of MS signal compared to control sample (MAP2K6): −18.0% and −10.7%
- % change of MS signal compared to control sample (VRK2): −30.6%
- % change of MS signal compared to control sample (JNK1, JNK2, JNK3): 6.3%
- % change of MS signal compared to control sample (RSK1 domain2): 12.5%
- % change of MS signal compared to control sample (FYN, SRC, YES): 97.4%
- % change of MS signal compared to control sample (NEK3): 3.5%
- % change of MS signal compared to control sample (CDK6): 7.8%
- % change of MS signal compared to control sample (SRPK1, SRPK2): −14.7%
- % change of MS signal compared to control sample (PAN3): −29.0%
- % change of MS signal compared to control sample (MAP3K3): −0.7%
- % change of MS signal compared to control sample (PYK2): 27.3%
- % change of MS signal compared to control sample (eEF2K): 0.3%
- % change of MS signal compared to control sample (MAP3K2, MAP3K3): 24.8%
- % change of MS signal compared to control sample (p38d, p38g): −2.7%
- % change of MS signal compared to control sample (MYO3A, MYO3B): 15.9%
- % change of MS signal compared to control sample (Erk5): −9.0%
- % change of MS signal compared to control sample (CaMK4): −7.1%
- % change of MS signal compared to control sample (CDK9): −41.9%
- % change of MS signal compared to control sample (NEK7): −7.7%
- % change of MS signal compared to control sample (AMPKa1): 10.1%
- % change of MS signal compared to control sample (MAP2K7): −10.1%
- % change of MS signal compared to control sample (RSK3): 16.8%
- % change of MS signal compared to control sample (NEK4): 12.3%
- % change of MS signal compared to control sample (TLK1): 2.2% and 8.2%
- % change of MS signal compared to control sample (CaMK2d): −8.5%
- % change of MS signal compared to control sample (IRAK1): 20.3%
- % change of MS signal compared to control sample (PI4KA, PI4KAP2): −37.7%
- % change of MS signal compared to control sample (FRAP): 4.9%

Structure (SMILES): C=CC(=O)N1CCC(Cn2ccc(Nc3ncc(C(=O)Nc4c(C)cccc4Cl)s3)n2)C1 (stereo not shown) [II-1]
- % change of MS signal compared to control sample (CDC2): −5.2% and 2.7%
- % change of MS signal compared to control sample (ATR): −55.3%
- % change of MS signal compared to control sample (PIK3CG): −45.9%
- % change of MS signal compared to control sample (BARK1): −23.3%
- % change of MS signal compared to control sample (MARK1, MARK2): 20.9%
- % change of MS signal compared to control sample (MAP3K5): −22.9%
- % change of MS signal compared to control sample (FRK): 84.0%
- % change of MS signal compared to control sample [1]: 2.5%
- % change of MS signal compared to control sample (MAP2K6): −8.3% and −12.6%
- % change of MS signal compared to control sample (VRK2): 5.2%
- % change of MS signal compared to control sample (JNK1, JNK2, JNK3): −23.5%
- % change of MS signal compared to control sample (RSK1 domain2): 14.0%
- % change of MS signal compared to control sample (FYN, SRC, YES): 88.1%
- % change of MS signal compared to control sample (NEK3): 8.1%
- % change of MS signal compared to control sample (CDK6): 6.0%
- % change of MS signal compared to control sample (SRPK1, SRPK2): 0.0%
- % change of MS signal compared to control sample (PAN3): −7.0%
- % change of MS signal compared to control sample (MAP3K3): 13.7%
- % change of MS signal compared to control sample (eEF2K): −3.8%
- % change of MS signal compared to control sample (MAP3K2, MAP3K3): 17.1%
- % change of MS signal compared to control sample (p38d, p38g): −6.6%
- % change of MS signal compared to control sample (MYO3A, MYO3B): 12.9%
- % change of MS signal compared to control sample (Erk5): −14.2%
- % change of MS signal compared to control sample (CaMK4): −10.3%
- % change of MS signal compared to control sample (CDK9): −57.0%
- % change of MS signal compared to control sample (NEK7): −8.5%
- % change of MS signal compared to control sample (AMPKa1): 5.1%
- % change of MS signal compared to control sample (MAP2K7): −0.6%
- % change of MS signal compared to control sample (RSK3): 22.3%
- % change of MS signal compared to control sample (NEK4): 18.5%
- % change of MS signal compared to control sample (TLK1): 7.1% and 5.7%
- % change of MS signal compared to control sample (CaMK2d): −14.8%
- % change of MS signal compared to control sample (IRAK1): 26.3%
- % change of MS signal compared to control sample (PI4KA, PI4KAP2): −45.7%
- % change of MS signal compared to control sample (FRAP): 8.6%
